Common to all, as to format: cell-based
The target in one assay is T1, BCL-XL (Homo sapiens, UniProt Q07817).
T1 construct: endogenous in cells; host or cells: MOLT-4
The experiment in a line: Bcl-xL ELISA degradation in MOLT-4 cells, 6 h. To be noted: for DC50: read-out: Bcl-xL ELISA in MOLT-4 degradation 6 h: Mean external-Abs DC50. The protocol:
The letter codes for BCL-XL DC50 include: A (<0.01 μM); B (0.01-0.1 μM); C (>[…]); D (>0.5-1.0 μM); and E (>1.0 μM). The letter codes for Dmax % include A (>75%); B (50 to 75%); C (<50%).

For a further assay, the system named is MOLT-4 cells. Kind of assay: CTG (CellTiter-Glo) cell viability assay, MOLT-4. To be noted: Homo sapiens, MOLT-4, 72 h, 3 day incubation, read-out: CTG Cell Viability Assay - MOLT-4 3 day: Average external-IC50. In short, it runs like this:
(§1)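 MOLT-4 and Caki-2 cells were seeded at 10,000 per well and treated with a 9-point, 1:3 dilution series from 10 μM top concentration (0.2% DMSO). After 3 days at 37 °C, 5% CO2, viability was read by CellTiter-Glo luminescence and IC50 fitted by three-parameter logistic.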

Another assay deals with Caki-2 cells. Kind of assay: CTG (CellTiter-Glo) cell viability assay, Caki-2. The settings on record: Homo sapiens, 72 h, 3 day incubation, read-out: CTG Chempartner - Caki-2 3 day: Average external-IC50. A digest of the protocol:
as §1

Each structure is given as a SMILES string. pIC50: −log10 of the molar value. A value given as a limit tells only on which side of the number the result lay.

T1 sequence (Q07817 whole entry): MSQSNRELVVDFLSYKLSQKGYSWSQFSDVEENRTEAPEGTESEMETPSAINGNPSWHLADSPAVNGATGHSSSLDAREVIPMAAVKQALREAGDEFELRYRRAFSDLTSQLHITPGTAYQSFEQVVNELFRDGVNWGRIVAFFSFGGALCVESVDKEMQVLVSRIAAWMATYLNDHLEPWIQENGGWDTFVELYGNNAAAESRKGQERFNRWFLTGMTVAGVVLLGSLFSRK

On BCL-XL, `Cc1ncsc1-c1ccc([C@H](C)NC(=O)[C@@H]2C[C@@H](O)CN2C(=O)[C@@H](NC(=O)CCCCc2nc(C3CCCN(C(=O)c4nc(N5CCc6cccc(C(=O)Nc7nc8ccccc8s7)c6C5)ccc4-c4cnn(CC5CCCCC5)c4C)C3)no2)C(C)(C)C)cc1` (stereo partly shown) [I-306] came in with a Dmax greater than 75%. Also, the 50% degradation concentration (DC50) at BCL-XL was 10 to 100 nM. Moreover, the pIC50 was greater than 7.00 in the assay with MOLT-4 cells and 5.00 to 6.00 in the assay on Caki-2 cells.
Consider `Cc1cc(N(C)c2ccc(-c3cnn(CC45CC6CC(CC(C6)C4)C5)c3C)c(C(=O)NS(=O)(=O)CCCCC(=O)N[C@H](C(=O)N3C[C@H](O)C[C@H]3C(=O)NCc3ccc(-c4scnc4C)cc3)C(C)(C)C)n2)nnc1Nc1nc2ccccc2s1` [I-371], for which, on BCL-XL, the Dmax was greater than 75% and the 50% degradation concentration (DC50) is less than 10 nM. The negative logarithm of the IC50 (pIC50) in the assay with MOLT-4 cells is 6.00 to 7.00. Moreover, the pIC50 in the assay on Caki-2 cells is less than 5.00.
The corresponding values for `Cc1ncsc1-c1ccc(CNC(=O)[C@@H]2C[C@@H](O)CN2C(=O)[C@@H](NC(=O)CCCc2cc(F)cc(S(=O)(=O)NC(=O)c3nc(N4CCc5cccc(C(=O)Nc6nc7ccccc7s6)c5C4)ccc3-c3cnn(CC4CCCCC4)c3C)c2)C(C)(C)C)cc1` [I-374] are greater than 75%, less than 10 nM, greater than 7.00 and 5.00 to 6.00.
The corresponding values for `Cc1cc(N(C)c2ccc(-c3cnn(CC4CCCC4)c3C)c(C(=O)NS(=O)(=O)c3ccc(N4CCC(C(=O)N[C@H](C(=O)N5C[C@H](O)C[C@H]5C(=O)N[C@@H](C)c5ccc(-c6scnc6C)cc5)C(C)(C)C)CC4)cc3)n2)nnc1Nc1nc2cccnc2s1` [I-457] are 50 to 75%, 500 to 1000 nM, 5.52 to 6.00 and less than 5.00.
The corresponding values for `C#Cc1ccc(CNC(=O)[C@@H]2C[C@@H](O)CN2C(=O)[C@@H](NC(=O)CCCCS(=O)(=O)NC(=O)c2nc(N(C)c3cc(C)c(Nc4nc5ccccc5s4)nn3)ccc2-c2cnn(CC34CC5CC(CC(C5)C3)C4)c2C)C(C)(C)C)cc1` [I-369] are greater than 75%, 10 to 100 nM, greater than 7.00 and less than 5.00.
As for `C#Cc1ccc(CNC(=O)[C@@H]2C[C@@H](O)CN2C(=O)[C@H](NC(=O)CCCCCS(=O)(=O)NC(=O)c2nc(N3CCc4cccc(C(=O)Nc5nc6ccccc6s5)c4C3)ccc2-c2cnn(CC3CCCCC3)c2C)C(C)(C)CCOP(=O)(O)O)cc1` [I-418], on BCL-XL, the Dmax is greater than 75% and the DC50 is 100 to 500 nM. Moreover, in the assay with MOLT-4 cells, the pIC50 was 6.00 to 7.00. Also, the pIC50 with Caki-2 cells is less than 5.00.
The corresponding values for `C#Cc1ccc(CNC(=O)[C@@H]2C[C@@H](O)CN2C(=O)[C@@H](NC(=O)CCc2ccc(S(=O)(=O)NC(=O)c3nc(N4CCc5cccc(C(=O)Nc6nc7ccccc7s6)c5C4)ccc3-c3cnn(CC(C)C)c3C)cc2)C(C)(C)C)cc1` [I-319] are 50 to 75%, greater than 1000 nM, less than 5.52 and less than 5.00.
The corresponding values for `Cc1ncsc1-c1ccc(CNC(=O)[C@@H]2C[C@@H](O)CN2C(=O)[C@@H](NC(=O)C2CN(CCS(=O)(=O)NC(=O)c3nc(N4CCc5cccc(C(=O)Nc6nc7ccccc7s6)c5C4)ccc3-c3cnn(CC4CCCCC4)c3C)C2)C(C)(C)C)cc1` [I-422] are greater than 75%, 100 to 500 nM, 6.00 to 7.00 and less than 5.00.
The corresponding values for `C#Cc1ccc(CNC(=O)[C@@H]2C[C@@H](O)CN2C(=O)[C@@H](NC(=O)CCNCCS(=O)(=O)NC(=O)c2nc(N3CCc4cccc(C(=O)Nc5nc6cccnc6s5)c4C3)ccc2-c2cnn(CC3CCCCC3)c2C)C(C)(C)C)cc1` [I-375] are greater than 75%, 10 to 100 nM, 5.52 to 6.00 and less than 5.00.
With `C#Cc1ccc(C2(NC(=O)[C@@H]3C[C@@H](O)CN3C(=O)[C@@H](NC(=O)CCCCCS(=O)(=O)NC(=O)c3nc(N(C)c4cc(C)c(Nc5nc6ccccc6s5)nn4)ccc3-c3cnn(CC45CC6CC(CC(C6)C4)C5)c3C)C(C)(C)C)CC2)cc1` [I-481], on BCL-XL, the Dmax is greater than 75% and the DC50 is less than 10 nM. Moreover, the negative logarithm of the IC50 (pIC50) in the assay with MOLT-4 cells was greater than 7.00. For the same compound, in the assay with Caki-2 cells, the pIC50 is less than 5.00.
Taken in the same sequence, the figures for `C#Cc1ccc(C2(NC(=O)[C@@H]3C[C@@H](O)CN3C(=O)[C@@H](NC(=O)CCCCCS(=O)(=O)NC(=O)c3nc(N4CCc5cccc(C(=O)Nc6nc7cccnc7s6)c5C4)ccc3-c3cnn(CC4CCCCC4)c3C)C(C)(C)C)CC2)cc1` [I-482] were greater than 75%, less than 10 nM, greater than 7.00 and less than 5.00.
On to `Cc1ncsc1-c1ccc(CNC(=O)[C@@H]2C[C@@H](O)CN2C(=O)[C@@H](NC(=O)C2CN(CCCS(=O)(=O)NC(=O)c3nc(N4CCc5cccc(C(=O)Nc6nc7ccccc7s6)c5C4)ccc3-c3cnn(CC4CCCCC4)c3C)C2)C(C)(C)C)cc1` [I-421], for which, at BCL-XL, the Dmax is greater than 75%. For the same compound, the DC50 at BCL-XL fell in the range of 10 to 100 nM. The negative logarithm of the IC50 (pIC50) with MOLT-4 cells was 5.52 to 6.00; with Caki-2 cells, less than 5.00.
Taken in the same sequence, the figures for `Cc1ncsc1-c1ccc([C@H](C)NC(=O)[C@@H]2C[C@@H](O)CN2C(=O)[C@@H](NC(=O)N2CC(Cc3ccc(S(=O)(=O)NC(=O)c4nc(N5CCc6cccc(C(=O)Nc7nc8ccccc8s7)c6C5)ccc4-c4cnn(CC5CCCCC5)c4C)cc3)C2)C(C)(C)C)cc1` [I-346] were greater than 75%, 10 to 100 nM, 6.00 to 7.00 and less than 5.00.
Taken in the same sequence, the figures for `Cc1ncsc1-c1ccc([C@H](C)NC(=O)[C@@H]2C[C@@H](O)CN2C(=O)[C@H](c2cc(OC3CC4(C3)CN(C(=O)c3nc(N5CCc6cccc(C(=O)Nc7nc8ccccc8s7)c6C5)ccc3-c3cnn(CC5CCCCC5)c3C)C4)no2)C(C)C)cc1` [I-293] were less than 50%, 500 to 1000 nM, 5.52 to 6.00 and 5.00 to 6.00.
The corresponding values for `Cc1ncsc1-c1ccc([C@H](C)NC(=O)[C@@H]2C[C@@H](O)CN2C(=O)[C@@H](NC(=O)C2CCN(c3ccc(S(=O)(=O)NCc4nc(N5CCc6cccc(C(=O)Nc7nc8ccccc8s7)c6C5)ccc4-c4cnn(CC5CCCCC5)c4C)cc3)CC2)C(C)(C)C)cc1` [I-324] are less than 50%, greater than 1000 nM, less than 5.52 and less than 5.00.
The compound `Cc1ncsc1-c1ccc([C@H](C)NC(=O)[C@@H]2C[C@@H](O)CN2C(=O)[C@@H](NC(=O)CCCCCS(=O)(=O)NC(=O)c2nc(N3CCc4cccc(C(=O)Nc5nc6ccccc6s5)c4C3)ccc2-c2ccnc(OC(C)C)c2C)C(C)(C)C)cc1` [I-315] showed a Dmax at BCL-XL greater than 75%. The 50% degradation concentration (DC50) at BCL-XL fell in the range of 10 to 100 nM. Also, the negative-log IC50 (pIC50) in the assay on MOLT-4 cells is greater than 7.00; with Caki-2 cells, less than 5.00.
With `CCN1CCN(Cc2cc(S(=O)(=O)NC(=O)c3nc(N4CCc5cccc(C(=O)Nc6nc7ccccc7s6)c5C4)ccc3-c3cnn(CC4CCCCC4)c3C)ccc2N2CCC(C(=O)N[C@H](C(=O)N3C[C@H](O)C[C@H]3C(=O)NCc3ccc(-c4scnc4C)cc3)C(C)(C)C)CC2)CC1` [I-341], on BCL-XL, the Dmax was greater than 75% and the DC50 was in the range of 10 to 100 nM. Moreover, the pIC50 in the assay with MOLT-4 cells is 6.00 to 7.00. In addition, the pIC50 in the assay with Caki-2 cells was less than 5.00.
The corresponding values for `C#Cc1ccc([C@H](COC)NC(=O)[C@@H]2C[C@@H](O)CN2C(=O)[C@@H](NC(=O)CCCCCS(=O)(=O)NC(=O)c2nc(N(C)c3cc(C)c(Nc4nc5ccccc5s4)nn3)ccc2-c2cnn(CC34CC5CC(CC(C5)C3)C4)c2C)C(C)(C)C)cc1` [I-476] are greater than 75%, less than 10 nM, greater than 7.00 and less than 5.00.
Taken in the same sequence, the figures for `Cc1cc(N(C)c2ccc(-c3cnn(CC(C)(C)C)c3C)c(C(=O)NS(=O)(=O)c3ccc(N4CCC(C(=O)N[C@H](C(=O)N5C[C@H](O)C[C@H]5C(=O)N[C@@H](C)c5ccc(-c6scnc6C)cc5)C(C)(C)C)CC4)cc3)n2)nnc1Nc1nc2cccnc2s1` [I-456] were less than 50%, greater than 1000 nM, less than 5.52 and less than 5.00.
Taken in the same sequence, the figures for `C#Cc1ccc(CNC(=O)[C@@H]2C[C@@H](O)CN2C(=O)[C@@H](NC(=O)CCCCCS(=O)(=O)NC(=O)c2nc(N3CCc4cccc(C(=O)Nc5nc6ccccc6s5)c4C3)ccc2-c2cnn(CC3CCCC3)c2C)C(C)(C)C)cc1` [I-444] were greater than 75%, less than 10 nM, greater than 7.00 and less than 5.00.
Regarding `Cc1ncsc1-c1ccc([C@H](C)NC(=O)[C@@H]2C[C@@H](O)CN2C(=O)[C@H](c2cc(OC3CCN(CCNC(=O)c4nc(N5CCc6cccc(C(=O)Nc7nc8ccccc8s7)c6C5)ccc4-c4cnn(CC5CCCCC5)c4C)CC3)no2)C(C)C)cc1` [I-292], on BCL-XL, the Dmax fell in the range of 50 to 75% and the DC50 lay within 100 to 500 nM. Besides, in the assay with MOLT-4 cells, the pIC50 was 6.00 to 7.00. The pIC50 in the assay on Caki-2 cells is 5.00 to 6.00.
The corresponding values for `Cc1ncsc1-c1ccc([C@H](C)NC(=O)[C@@H]2C[C@@H](O)CN2C(=O)[C@@H](NC(=O)CCCCCS(=O)(=O)NC(=O)c2nc(N3CCc4cccc(C(=O)Nc5nc6ccccc6s5)c4C3)ccc2-c2cnn(CC3CCCCC3)c2C)C(C)(C)CCOP(=O)(O)O)cc1` [I-415] are 50 to 75%, greater than 1000 nM, less than 5.52 and less than 5.00.

Source of the values: US20250197387A1, “BCL-XL DEGRADERS AND USES THEREOF” (Kymera Therapeutics, Inc., priority 2021, published 2025).
